EP4778933A1 (Chengdu Hyperway Pharmaceuticals Co., Ltd., priority 2023, dated 2025)
pIC50: −log10 of the molar value. Like-named read-outs stand apart in the source and are kept apart here.

Key:
[1] = test system: KRAS G12D-mediated ERK phosphorylation; assay: Inhibition of KRAS G12D-mediated ERK phosphorylation in AGS cells (in-cell pERK/GAPDH immunofluorescence); type: cell-based; conditions: AGS cells, 3 h incubation, read-out: Inhibitory activity on ERK phosphorylation (IC50) AGS-G12D
Summary of the method: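 AGS, SW480, NCI H358 and KP2 cells were seeded overnight, then treated with compounds for 3 h at 37°C. After fixation, permeabilization and blocking, pERK and GAPDH were immunostained and read by two-colour infrared fluorescence. The pERK/GAPDH ratio was normalized to DMSO and 10 µM reference controls, and IC50 was fitted with a four-parameter logistic model.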

GP2D (KRASG12D) = assay: 3D cell proliferation inhibition test (CellTiter-Glo 3D, 7 days), GP2D; type: cell-based; conditions: 168 h, read-out: Inhibitory activity on cell proliferation (IC50) GP2D (KRASG12D)
Protocol: (§1) The diluted compounds to be tested were added to 384-well low-adhesion KRAS mutant types (such as GP2D, NCI H358, LoVo, RKN and KP2) of cell culture plates by using a nanoliter pipetting system (LABCYTE, P-0200). Then, the cells were plated and incubated in a 37°C, 5% CO2 incubator for 7 days. Afterward, CellTiter-Glo® 3D reagent was added, and the luminescent values were read by an Envision multifunctional microplate reader (the luminescent signal is proportional to the amount of ATP in the system, and the ATP content directly represents the number of viable cells in the system). Finally, the IC50 values (half-maximal inhibitory concentration) of the compounds were obtained by the XLFIT software using the nonlinear fitting formula.
(§2) • a) The diluted compounds to be tested were added to 384-well low-adhesion KRAS mutant types of cell culture plates by using a nanoliter pipetting system. • b) Cells were seeded into the 384-well plates in a) and then centrifuged at 1000 rpm for 1 min at room temperature, with a final DMSO concentration of compound being 0.5%. The plates were then incubated in a 5% CO2 constant-temperature incubator at 37°C for 7 days. • c) CellTiter-Glo® 3D was added to the 384-well cell culture plates in b), shaken in the dark, and incubated at room temperature. • d) The luminescence values were read by using an Envision multifunctional microplate reader.
(§3) The IC50 (half-maximal inhibitory concentration) values of the compounds were obtained by using XLFIT software according to the following nonlinear fitting formula: Y = Bottom + (Top−Bottom)/(1+10^(∧)((LogIC50−X)×HillSlope)) [formula] • X: log value of compound concentration. • Y: inhibition rate (%) [formula] • Negative control: DMSO. • Positive control: Medium only.

NCI H358 (KRAS G12C) = assay: 3D cell proliferation inhibition test (CellTiter-Glo 3D, 7 days), NCI H358; type: cell-based; conditions: Homo sapiens, NCI-H358, 168 h, read-out: Inhibitory activity on cell proliferation (IC50) NCI H358 (KRAS G12C)
Protocol: as §1
as §2, with “reader. […]” for “reader.”

LoVo (KRAS G13D) = assay: 3D cell proliferation inhibition test (CellTiter-Glo 3D, 7 days), LoVo; type: cell-based; conditions: Homo sapiens, 168 h, read-out: Inhibitory activity on cell proliferation (IC50) LoVo (KRAS G13D)
Protocol: as §1
as §2, with “reader. […]” for “reader.”

RKN (KRAS G12V) = assay: 3D cell proliferation inhibition test (CellTiter-Glo 3D, 7 days), RKN; type: cell-based; conditions: 168 h, read-out: Inhibitory activity on cell proliferation (IC50) RKN (KRAS G12V)
Protocol: as §1, §2, §3

[2] = In vivo pharmacokinetic test in mice; conditions: female BALB/c mice, single dose 30 mg/kg, plasma, 30 mg/kg
Protocol: (§4) Each test compound was administered orally once to female BALB/c mice for pharmacokinetic study. The test compounds were prepared on the day of administration. The oral administration solvent: 50 mM sodium citrate (pH 5.0) + 10% captisol. The oral administration was conducted in a dose of 30 mg/kg. The animals were fasted for 10-14 h before oral administration, and the feeding was resumed 4 h after administration. Pharmacokinetic samples were collected through the orbit. The collection time points were: 15 min, 30 min, 1 h, 2 h, 4 h, 6 h, 8 h and 24 h after administration. Three whole blood samples were collected at each time point, with a collection volume of about 0.2 mL, and anticoagulated with sodium heparin. After blood samples were collected, they were immediately placed on ice and centrifuged within 1 h to isolate plasma (centrifugation conditions: 8000 rpm, 1 min, 2-8°C). The collected plasma was stored in a -20°C refrigerator before analysis. The concentrations of compounds in the plasma samples were determined using an LC-MS/MS analysis method.

[3] = In vivo pharmacokinetic test in rats; parameters: species or system SD Rats; conditions: male rats; for AUC / Cmax: rat, oral, single dose 30 mg/kg, plasma; for F: oral 30 mg/kg vs intravenous
Protocol: as §4, with “once to male […] rats” for “once to female BALB/c mice”, “male BALB/c rats for pharmacokinetic” for “female BALB/c mice for pharmacokinetic”, “administration. The intravenous administration solvent: 5% DMSO + 10% solutol + 85% saline; and the oral administration” for “administration. The oral administration”, “points were: 5 min (intravenous administration), 15 min,” for “points were: 15 min,”, “analysis method. Table 4: Pharmacokinetic test results of some compounds in SD Rats” for “analysis method.”

Row | pIC50 [1] | AUC ([2]; oral) | Cmax ([2]; oral) | AUC ([3]; Sprague-Dawley (SD)) | Cmax ([3]; Sprague-Dawley (SD)) | SMILES | pIC50 (GP2D (KRASG12D)) | pIC50 (NCI H358 (KRAS G12C)) | pIC50 (LoVo (KRAS G13D)) | pIC50 (RKN (KRAS G12V)) | F [3] | pIC50 ([1]; Homo sapiens, AGS, 3 h) | AUC ([2]; mouse, in vivo, po, read-out: AUC) | Cmax ([2]; mouse, in vivo, po, read-out: Cmax) | AUC ([3]; in vivo) | Cmax ([3]; in vivo)
1 | 8.72 | 20953 ng·h/mL | 5124 ng/mL | 11300 ng·h/mL | 1030 ng/mL | CC1(O)COCCN(c2nc(OCC34CCCN3C(c3cc(F)c(F)c(F)c3)CC4)nc3c(F)c(-c4cccc5sc(N)c(C#N)c45)c(I)cc23)C1 (single isomer, unassigned) [Example 31, 2-amino-4-[6-iodo-8-fluoro-4-(6-hydroxy-6-methyl-1,4-oxazepan-4-yl)-2-({[3-(3,4,5-trifluorophenyl)-2,3,5,6,7,7a-hexahydro-1H-pyrrolizin-7a-yl]methyl}oxy)quinazolin-7-yl]benzo[b]thiophene-3-carbonitrile] | 8.76 | 9.16 | 7.69 | 8.43 | 21.5% |  |  |  |  | 
2 |  |  |  |  |  | CC1(O)COCCN(c2nc(OCC34CCCN3C(c3cc(F)c(F)c(F)c3)CC4)nc3c(F)c(-c4cccc5sc(N)c(C#N)c45)c(Br)cc23)C1 (single isomer, unassigned) [Example 26, 2-amino-4-[6-bromo-8-fluoro-4-(6-hydroxy-6-methyl-1,4-oxazepan-4-yl)-2-({[3-(3,4,5-trifluoropheny 1)-2,3,5,6,7,7a-hexahydro-1H-pyrrolizin-7a-yl]methyl}oxy)quinazolin-7-yl]benzo[b]thiophene-3-carb onitrile] | 8.52 | 8.99 | 7.85 | 8.36 | 22.3% | 8.57 | 15800 ng·h/mL | 4880 ng/mL | 12400 ng·h/mL | 1190 ng/mL
